System: Micrococcus luteus NRRL B-8166 uricase
Experiment: Assay of uricase (spectrophotometric, disappearance of uric acid at 290 nm)
Type: biochemical
Procedure: Uricase was assayed spectrophotometrically by following the disappearance of uric acid at 290 nm using a modification of the procedure described by Mahler et. al, J. Biol. Chem., 216, p. 625, (1955). Assay tubes contained 2.7 ml 50 mM KPi buffer pH 8.6, 0.1 mM sodium EDTA, 0.05 ml 6 mM urate, plus enzyme and water to give a final volume of 3.0 ml. Changes or additions to the assay mixtures were made when necessary. Tubes were incubated for 5 minutes at 30° C; the reaction was started by adding enzyme. Molar extinction coefficient for uric acid at 290 nm is 12,300. Activity was expressed in units of uricase activity, where a unit is that amount of enzyme which catalyzes the oxidation of one μmole of uric acid per minute at 30° C and pH 8.6.

Structure (SMILES)	Km (substrate not given, the uricase assay uses urate, KPi buffer pH 8.6, 30° C, read-out: Michaelis constant) [µM]	Ki (read-out: inhibition constant for oxonate) [µM]
O=c1[nH]c(=O)c2[nH]c(=O)[nH]c2[nH]1 [uric acid]	37	–
O=C(O)c1nc(=O)[nH]c(=O)[nH]1 [oxonate]	–	4.5

Reference: US4064010A, “Purification of uricase” (Eastman Kodak Company, priority 1976, dated 1977)
